Measurements taken from US7026317B2, “Pyrazolotriazines as CRF antagonists” (Bristol-Myers Squibb Pharma Company, priority 1999, dated 2006).

melting point | Compound
98 to 99 °C | CCc1nn2c(-c3ccc(Cl)cc3Cl)nc(C)nc2c1N(CC)CC [compound 3, 4-(2,4-dichlorophenyl)-8-diethylamino-7-ethyl-2-methyl-pyrazolo[1,5-a]-1,3,5-triazine]
91 to 93 °C | CCc1nn2c(-c3ccc(Cl)cc3Cl)nc(C)nc2c1C(CC)CC [compound 1, 4-(2,4-dichlorophenyl)-8-(3-pentyl)-7-ethyl-2-methyl-pyrazolo[1,5-a]-1,3,5-triazine]
